Among the data in the OligoGym collection are 3 h FOB score values, retold here.

HELM strings list units from the 5' end as sugar, base in round brackets, then linkage (d deoxyribose, r ribose, m 2'-O-methyl, p phosphodiester). Strings are as the collection lists them; they lack the last nucleoside at the 3' end of the tested compound. [moe] = 2'-O-(2-methoxyethyl) (MOE); [sp] = phosphorothioate linkage; [m5C] = 5-methylcytosine

This data set concerns the target SCN2A. In words: mouse, dose not given. To be noted: ASO.
The substance “RNA1{[moe](A)[sp].[moe](G)p.[moe]([m5C])p.[moe](A)p.d(T)[sp].d(G)[sp].d(T)[sp].d(T)[sp].d(T)[sp].d(A)[sp].d(T)[sp].d([m5C])[sp].d(T)[sp].d(T)[sp].[moe](A)p.[moe](G)p.[moe](T)p.[moe](T)[sp].[moe]([m5C])}$$$$ (last 3' nucleoside missing)” returned a 3 h FOB score of 0 score 0-7.

In the case of “RNA1{[moe](T)[sp].[moe]([m5C])p.[moe](T)p.[moe](G)p.[moe]([m5C])p.[moe](A)[sp].d(T)[sp].d(G)[sp].d(T)[sp].d(A)[sp].d(A)[sp].d([m5C])[sp].d([m5C])[sp].d(T)[sp].[moe](T)p.[moe](T)[sp].[moe](A)}$$$$ (last 3' nucleoside missing)”, the 3 h FOB score turned out to be 0.33 score 0-7.

With “RNA1{[moe]([m5C])[sp].[moe]([m5C])p.[moe](A)p.[moe](T)p.[moe](T)p.[moe](T)p.d([m5C])[sp].d(T)[sp].d(A)[sp].d(T)[sp].d(A)[sp].d(A)[sp].d([m5C])[sp].d(T)[sp].d([m5C])[sp].d(A)[sp].[moe](G)p.[moe]([m5C])[sp].[moe](A)}$$$$ (last 3' nucleoside missing)”, the 3 h FOB score was determined as 0 score 0-7.

For “RNA1{[moe](T)[sp].[moe](G)p.[moe](T)p.[moe](A)p.[moe](A)p.[moe]([m5C])p.d([m5C])[sp].d(T)[sp].d(T)[sp].d(T)[sp].d(A)[sp].d(T)[sp].d(A)[sp].d([m5C])[sp].d(A)[sp].d(T)[sp].[moe](T)p.[moe](T)[sp].[moe](A)}$$$$ (last 3' nucleoside missing)”, the 3 h FOB score amounted to 0 score 0-7.

“RNA1{[moe](T)[sp].[moe](A)p.[moe](T)p.[moe](T)p.d(T)[sp].d(T)[sp].d(T)[sp].d([m5C])[sp].d(T)[sp].d(A)[sp].d([m5C])[sp].d(A)[sp].d([m5C])[sp].d(T)[sp].[moe](G)p.[moe]([m5C])p.[moe](T)p.[moe](G)[sp].[moe]([m5C])}$$$$ (last 3' nucleoside missing)” had a 3 h FOB score of 0 score 0-7.

“RNA1{[moe](G)[sp].[moe]([m5C])p.[moe](A)p.[moe](T)p.[moe](A)p.[moe](A)p.d(T)[sp].d([m5C])[sp].d([m5C])[sp].d([m5C])[sp].d(A)[sp].d(T)[sp].d(T)[sp].d(A)[sp].d(T)[sp].d(A)[sp].[moe]([m5C])p.[moe](A)[sp].[moe](A)}$$$$ (last 3' nucleoside missing)” yielded a 3 h FOB score of 0 score 0-7.

“RNA1{[moe]([m5C])[sp].[moe](A)p.[moe](T)p.[moe](G)p.[moe](T)p.d(A)[sp].d(A)[sp].d(T)[sp].d([m5C])[sp].d(A)[sp].d([m5C])[sp].d(T)[sp].d(T)[sp].d(T)[sp].d([m5C])[sp].[moe](A)p.[moe](T)p.[moe]([m5C])[sp].[moe]([m5C])}$$$$ (last 3' nucleoside missing)” had a 3 h FOB score of 0 score 0-7.

In turn, “RNA1{[moe](A)[sp].[moe]([m5C])p.[moe](A)p.[moe](T)p.d(A)[sp].d(T)[sp].d(T)[sp].d(T)[sp].d(T)[sp].d(T)[sp].d([m5C])[sp].d(T)[sp].d(A)[sp].d([m5C])[sp].[moe](A)p.[moe]([m5C])p.[moe](T)p.[moe](G)[sp].[moe]([m5C])}$$$$ (last 3' nucleoside missing)” displayed a 3 h FOB score of 0.33 score 0-7.

Consider “RNA1{[moe]([m5C])[sp].[moe](A)p.[moe](G)p.[moe]([m5C])p.[moe](A)p.[moe](T)p.d(A)[sp].d(T)[sp].d(T)[sp].d([m5C])[sp].d(T)[sp].d(A)[sp].d(A)[sp].d([m5C])[sp].d(A)[sp].d(T)[sp].[moe](G)p.[moe](G)[sp].[moe](T)}$$$$ (last 3' nucleoside missing)”, for which the 3 h FOB score turned out to be 0 score 0-7.

Substance “RNA1{[moe](A)[sp].[moe](T)p.[moe](A)p.[moe](T)p.[moe](T)p.d(T)[sp].d(T)[sp].d(T)[sp].d([m5C])[sp].d(T)[sp].d(A)[sp].d([m5C])[sp].d(A)[sp].d([m5C])[sp].d(T)[sp].[moe](G)p.[moe]([m5C])p.[moe](T)[sp].[moe](G)}$$$$ (last 3' nucleoside missing)” had a 3 h FOB score of 1 score 0-7.

“RNA1{[moe](T)[sp].[moe]([m5C])p.[moe](T)p.[moe]([m5C])p.[moe](T)p.d(T)[sp].d(T)[sp].d([m5C])[sp].d(T)[sp].d(T)[sp].d(A)[sp].d(T)[sp].d(T)[sp].d(T)[sp].d([m5C])[sp].[moe](T)p.[moe](G)p.[moe](T)[sp].[moe](T)}$$$$ (last 3' nucleoside missing)”: the 3 h FOB score stood at 0 score 0-7.

With “RNA1{[moe](T)[sp].[moe]([m5C])p.[moe](T)p.[moe]([m5C])p.d(T)[sp].d(T)[sp].d(T)[sp].d([m5C])[sp].d(T)[sp].d(T)[sp].d(A)[sp].d(T)[sp].d(T)[sp].d(T)[sp].[moe]([m5C])p.[moe](T)p.[moe](G)p.[moe](T)[sp].[moe](T)}$$$$ (last 3' nucleoside missing)”, the 3 h FOB score amounted to 0 score 0-7.

The substance “RNA1{[moe](T)[sp].[moe](T)p.[moe]([m5C])p.[moe](T)p.d(G)[sp].d([m5C])[sp].d(A)[sp].d(T)[sp].d(G)[sp].d(T)[sp].d(A)[sp].d(A)[sp].d([m5C])[sp].d([m5C])[sp].[moe](T)p.[moe](T)p.[moe](T)p.[moe](A)[sp].[moe](T)}$$$$ (last 3' nucleoside missing)” yielded a 3 h FOB score of 1 score 0-7.

Consider “RNA1{[moe](A)[sp].[moe](T)p.[moe](T)p.[moe](T)p.[moe]([m5C])p.d(T)[sp].d(A)[sp].d(T)[sp].d(A)[sp].d(A)[sp].d([m5C])[sp].d(T)[sp].d([m5C])[sp].d(A)[sp].d(G)[sp].[moe]([m5C])p.[moe](A)p.[moe](A)[sp].[moe]([m5C])}$$$$ (last 3' nucleoside missing)”, for which the 3 h FOB score is 0 score 0-7.

The substance “RNA1{[moe]([m5C])[sp].[moe](A)p.[moe](G)p.[moe]([m5C])p.[moe](A)p.[moe](T)p.d(G)[sp].d(T)[sp].d(T)[sp].d(T)[sp].d(A)[sp].d(T)[sp].d([m5C])[sp].d(T)[sp].d(T)[sp].d(A)[sp].[moe](G)p.[moe](T)[sp].[moe](T)}$$$$ (last 3' nucleoside missing)” had a 3 h FOB score of 0 score 0-7.

In the case of “RNA1{[moe](G)[sp].[moe](T)p.[moe](A)p.[moe](A)p.d([m5C])[sp].d([m5C])[sp].d(T)[sp].d(T)[sp].d(T)[sp].d(A)[sp].d(T)[sp].d(A)[sp].d([m5C])[sp].d(A)[sp].[moe](T)p.[moe](T)p.[moe](T)p.[moe](A)[sp].[moe](A)}$$$$ (last 3' nucleoside missing)”, the 3 h FOB score amounted to 0 score 0-7.

Regarding “RNA1{[moe]([m5C])[sp].[moe]([m5C])p.[moe](A)p.[moe](G)p.d(T)[sp].d(T)[sp].d(T)[sp].d(T)[sp].d(T)[sp].d(T)[sp].d([m5C])[sp].d(A)[sp].d(T)[sp].d(T)[sp].[moe](G)p.[moe]([m5C])p.[moe](A)p.[moe](T)[sp].[moe]([m5C])}$$$$ (last 3' nucleoside missing)”, the 3 h FOB score came out at 0 score 0-7.

On to “RNA1{[moe](T)[sp].[moe](G)p.[moe]([m5C])p.[moe](A)p.[moe](T)p.d(G)[sp].d(T)[sp].d(A)[sp].d(A)[sp].d([m5C])[sp].d([m5C])[sp].d(T)[sp].d(T)[sp].d(T)[sp].d(A)[sp].[moe](T)p.[moe](A)p.[moe]([m5C])[sp].[moe](A)}$$$$ (last 3' nucleoside missing)”, for which the 3 h FOB score came out at 1 score 0-7.

“RNA1{[moe](A)[sp].[moe](A)p.[moe](T)p.[moe](T)p.[moe]([m5C])p.[moe](T)p.d(A)[sp].d(T)[sp].d(T)[sp].d(T)[sp].d(T)[sp].d(A)[sp].d(T)[sp].d(A)[sp].d(A)[sp].d(A)[sp].[moe](T)p.[moe](G)[sp].[moe]([m5C])}$$$$ (last 3' nucleoside missing)” yielded a 3 h FOB score of 0.33 score 0-7.

Regarding “RNA1{[moe](G)[sp].[moe](T)p.[moe](A)p.[moe](A)p.[moe]([m5C])p.d([m5C])[sp].d(T)[sp].d(T)[sp].d(T)[sp].d(A)[sp].d(T)[sp].d(A)[sp].d([m5C])[sp].d(A)[sp].d(T)[sp].[moe](T)p.[moe](T)p.[moe](A)[sp].[moe](A)}$$$$ (last 3' nucleoside missing)”, the 3 h FOB score amounted to 0.33 score 0-7.

“RNA1{[moe](A)[sp].[moe]([m5C])p.[moe](A)p.[moe](T)p.[moe](A)p.d(T)[sp].d(T)[sp].d(T)[sp].d(T)[sp].d(T)[sp].d([m5C])[sp].d(T)[sp].d(A)[sp].d([m5C])[sp].d(A)[sp].[moe]([m5C])p.[moe](T)p.[moe](G)[sp].[moe]([m5C])}$$$$ (last 3' nucleoside missing)” yielded a 3 h FOB score of 0 score 0-7.

For “RNA1{[moe]([m5C])[sp].[moe](A)p.[moe]([m5C])p.[moe](G)p.d(A)[sp].d([m5C])[sp].d(A)[sp].d(T)[sp].d(A)[sp].d(T)[sp].d(T)[sp].d(T)[sp].d(T)[sp].d(T)[sp].[moe]([m5C])p.[moe](T)p.[moe](A)p.[moe]([m5C])[sp].[moe](A)}$$$$ (last 3' nucleoside missing)”, the 3 h FOB score was found to be 0 score 0-7.

Substance “RNA1{[moe](G)[sp].[moe](A)p.[moe](A)p.[moe](T)p.d(T)[sp].d([m5C])[sp].d(T)[sp].d(A)[sp].d(T)[sp].d(T)[sp].d(T)[sp].d(T)[sp].d(A)[sp].d(T)[sp].[moe](A)p.[moe](A)p.[moe](A)p.[moe](T)[sp].[moe](G)}$$$$ (last 3' nucleoside missing)” returned a 3 h FOB score of 0.67 score 0-7.

Take “RNA1{[moe](T)[sp].[moe](G)p.[moe]([m5C])p.[moe](A)p.[moe](T)p.[moe](G)p.d(T)[sp].d(A)[sp].d(A)[sp].d([m5C])[sp].d([m5C])[sp].d(T)[sp].d(T)[sp].d(T)[sp].d(A)[sp].d(T)[sp].[moe](A)p.[moe]([m5C])[sp].[moe](A)}$$$$ (last 3' nucleoside missing)”: the 3 h FOB score is 0 score 0-7.

With “RNA1{[moe](T)[sp].[moe]([m5C])p.[moe](T)p.[moe](A)p.[moe](T)[sp].d(T)[sp].d(T)[sp].d(T)[sp].d(A)[sp].d(T)[sp].d(A)[sp].d(A)[sp].d(A)[sp].[moe](T)p.[moe](G)p.[moe]([m5C])[sp].[moe]([m5C])}$$$$ (last 3' nucleoside missing)”, the 3 h FOB score turned out to be 1.33 score 0-7.

With “RNA1{[moe](G)[sp].[moe](A)p.[moe](G)p.[moe](A)p.[moe](T)p.d(T)[sp].d(G)[sp].d([m5C])[sp].d(T)[sp].d(T)[sp].d(T)[sp].d([m5C])[sp].d([m5C])[sp].d([m5C])[sp].d(T)[sp].[moe](T)p.[moe](T)p.[moe](A)[sp].[moe](T)}$$$$ (last 3' nucleoside missing)”, the 3 h FOB score was 1 score 0-7.
